# Assay results from patent US11717536B2, “Treatment for periodontitis” (THE UNIVERSITY OF MELBOURNE, priority 2017, dated 2023).
# Several values for one entry are separate records, joined by “and”; a condition that tells them apart may be missing. Equal values may be shown once. Marks after values point to notes of the source that are not given here.
# Tests used:
# [1] = test system: Actinomyces naeslundii (NCTC 10301); experiment: Six species polymicrobial biofilm in constant-depth film fermenter, species composition: A. naeslundii; assay type: cell-based
# Protocol: (§1) To model supragingival plaque six representative oral bacterial species, Streptococcus sanguinis (NCTC 7863), Streptococcus mutans Ingbritt, Actinomyces naeslundii (NCTC 10301), Veillonella parvula (ATCC 17745), Lactobacillus casei (NCDO 161) and Fusobacterium nucleatum (ATCC 10953) (Table 5) were cultured as a polymicrobial biofilm on a human enamel substratum in a constant-depth film fermenter (CDFF; Cardiff University, UK). The CDFF was housed in a 37° C. incubator under anaerobic conditions which were maintained by a constant flow of 5% CO2 in N2 at 1 L/h. The CDFF contained 15 removable polytetrafluoroethylene (PTFE) pans on a circular platform that was rotated at a constant speed of three rpm. The biofilms were grown on three enamel blocks (see below) in each PTFE pan using an artificial saliva medium (ASM, 2.5 g/L mucin type II (porcine, gastric, Sigma), 2.0 g/L bacteriological peptone (Oxoid), 2.0 g/L tryptone (Oxoid), 1.0 g/L yeast extract (Oxoid), 0.35 g/L NaCl, 0.2 g/L KCl, 0.2 mg/L vitamin K, 1 mg/L haemin and 0.1 g/L cysteine hydrochloride) at a constant flow rate of 30 mL/h. Prior to inoculation, the CDFF pan surfaces were conditioned for 24 h with ASM at a flow rate of 10 mL/h (McBain et al (2003) J Appl Microbiol. 94(4):655-66). In order to mimic in vivo bacterial growth conditions in the oral cavity with dietary sugar intake and to provide a high cariogenic challenge, a 1% (w/v) sucrose solution in ASM was pumped into the CDFF four times a day at four hourly intervals with a flow rate of 30 mL/h for 10 min.
# (§2) Three treatments were applied to the polymicrobial biofilms: 290 ppm fluoride with 220 ppm fluoride as SnF2 and 70 ppm fluoride as NaF (referred to as SnF2), 2% CPP-ACP and 2% CPP-ACP-SnF2. […]
# (§3) For each timepoint, DNA was extracted separately from 8-9 enamel blocks using PowerLyzer® PowerSoil® DNA Isolation Kits (MoBio Laboratories) following the manufacturers “Vacuum Protocol” with a Precellys® bead homogeniser (Bertin Technologies). Samples were quantified using a Qubit™ dsDNA HS assay kit (Life Technologies) before being stored at −80° C. […]
# [2] = test system: Fusobacterium nucleatum (ATCC 10953); experiment: Six species polymicrobial biofilm in constant-depth film fermenter, species composition: F. nucleatum; assay type: cell-based
# Protocol: as §1
# (§4) Three treatments were applied to the polymicrobial biofilms: 290 ppm fluoride with 220 ppm fluoride as SnF2 and 70 ppm fluoride as NaF (referred to as SnF2), 2% CPP-ACP and 2% CPP-ACP-SnF2. These treatments were compared with the control in which the test solution was replaced with ASM. Each treatment was applied using two 10 min pulses of the test solution in ASM with a flow rate of 30 mL/h. The first pulse started 30 min prior to the first sucrose pulse of the morning and the second started 3 h 30 min after the final sucrose pulse of the day.
# (§5) On day 6, 12 and 19 after inoculation four pans were removed aseptically from the CDFF and replaced with blank sterile pans. Enamel blocks from the pans were removed for bacterial enumeration and transverse microradiography.
# Planktonic and loosely attached bacterial cells were firstly removed from the enamel blocks by light washing with 100 μL ASM. To harvest the biofilm cells on each block, the surface was scraped with a sterile scraper with 1 mL of ASM. The biofilm bacterial cells were sedimented by centrifugation (10,000 g, 10 min), the supernatant carefully decanted and the cell pellets stored at −80° C. until required for DNA extraction. The enamel blocks were then used for sectioning and microradiography.
# For each timepoint, DNA was extracted separately from 8-9 enamel blocks using PowerLyzer® PowerSoil® DNA Isolation Kits (MoBio Laboratories) following the manufacturers “Vacuum Protocol” with a Precellys® bead homogeniser (Bertin Technologies). Samples were quantified using a Qubit™ dsDNA HS assay kit (Life Technologies) before being stored at −80° C.
# The Ion Amplicon Library Preparation Fusion Method (Thermo Fisher Scientific), was adapted for amplification of the V4 region of the 16S rRNA gene. […]
# [3] = test system: Lactobacillus casei (NCDO 161); experiment: Six species polymicrobial biofilm in constant-depth film fermenter, species composition: L. casei; assay type: cell-based; conditions: 19 days; mean ± standard deviation; n = 5-21
# Protocol: as §1, §4, §5
# (§6) Planktonic and loosely attached bacterial cells were firstly removed from the enamel blocks by light washing with 100 μL ASM. […]
# as §3
# [4] = test system: Streptococcus mutans Ingbritt; experiment: Six species polymicrobial biofilm in constant-depth film fermenter, species composition: S. mutans; assay type: cell-based; conditions: 19 days; mean ± standard deviation; n = 5-21
# Protocol: as §1, §2, §3
# [5] = test system: Streptococcus sanguinis (NCTC 7863); experiment: Six species polymicrobial biofilm in constant-depth film fermenter, species composition: S. sanguinis; assay type: cell-based
# Protocol: as §1, §4, §5, §6, §3
# [6] = test system: Veillonella parvula (ATCC 17745); experiment: Six species polymicrobial biofilm in constant-depth film fermenter, species composition: V. parvula; assay type: cell-based; conditions: 19 days; mean ± standard deviation; n = 5-21
# Protocol: as §1, §2, §3
# [7] = test system: enamel substratum of the polymicrobial biofilm caries model; experiment: Enamel subsurface demineralization in the polymicrobial biofilm caries model (transverse microradiography); set-up: species or system human; conditions: for integrated mineral loss ΔZd / lesion depth LD: twice daily 10 min pulses, mean ± SD
# Protocol: as §1, §4, §5
# Three hundred and sixty extracted human third molars were obtained under University of Melbourne ethics approval (HREC #1237616) and sterilized by exposure to 4.1 kGy of gamma radiation. Enamel blocks were cut from the teeth with approximately 6×3×3 mm dimensions using a water-cooled diamond blade saw (Minitom, Struers) and polished using a RotoPol/RotoForce lapping instrument with 1200, 2400, 4000 grit lapping papers (Struers) and 3 and 1 μm diamond polishing pastes (Struers). The blocks were positioned in custom made CDFF pans at a depth of 100 μm and sealed in place with yellow sticky wax (Kemdent) and sterilized by exposure to 4.1 kGy of gamma radiation.
# Transverse microradiography was carried out essentially as described previously [Shen et al 2011]. […] The lesion depth (μm) was determined as the distance to the point at which the mineral content reaches 95% of the sound enamel value. The integrated mineral loss (IML), represented as ΔZd, was calculated by trapezoidal integration as the area between the sound-enamel densitometric profile and that of the demineralized enamel densitometric profile in vol % min·μm.
# polymicrobial biofilm = experiment: Biofilm ion analyses (calcium, phosphorous, tin; ICP-MS)
# Protocol: To model supragingival plaque six representative oral bacterial species, Streptococcus sanguinis (NCTC 7863), Streptococcus mutans Ingbritt, Actinomyces naeslundii (NCTC 10301), Veillonella parvula (ATCC 17745), Lactobacillus casei (NCDO 161) and Fusobacterium nucleatum (ATCC 10953) (Table 5) were cultured as a polymicrobial biofilm on a human enamel substratum in a constant-depth film fermenter (CDFF; Cardiff University, UK). […] The CDFF contained 15 removable polytetrafluoroethylene (PTFE) pans on a circular platform that was rotated at a constant speed of three rpm. […] These treatments were compared with the control in which the test solution was replaced with ASM. […] The first pulse started 30 min prior to the first sucrose pulse of the morning and the second started 3 h 30 min after the final sucrose pulse of the day. Calcium, phosphorous and tin content of polymicrobial biofilm samples were determined by inductively-coupled mass spectrometry essentially as described previously [[…] et al 2005].
# [8] = 19 days, mean ± standard deviation, n = 5-21
smiles,measurement,setting,value
"[F][Sn][F] [SnF2, stannous fluoride, reference compound]",A. naeslundii as a percentage of total bacteria in the biofilm,[1]; [8],5.54 ± 1.74^abc %
same,change in abundance of A. naeslundii relative to the control (in words),"[1]; twice daily treatment, day 19",significantly reduced
same,F. nucleatum as a percentage of total bacteria in the biofilm,[2]; [8],0.02 ± 0.01^cd %
same,change in abundance of F. nucleatum after treatment relative to the control (increase),"[2]; day 19, FIG. 5B",−2%
same,L. casei as a percentage of total bacteria in the biofilm,[3],10.67 ± 6.92^cd %
same,S. mutans as a percentage of total bacteria in the biofilm,[4],59.82 ± 4.59^a %
same,S. sanguinis as a percentage of total bacteria in the biofilm,[5]; [8],17.47 ± 3.44^a %
same,change in abundance of S. sanguinis relative to the control (in words),"[5]; twice daily treatment, day 19",significantly increased
same,V. parvula as a percentage of total bacteria in the biofilm,[6],6.50 ± 1.48^b %
same,integrated mineral loss ΔZd,[7]; Day 6,636.7 ± 129.4 vol % min · μm
same,lesion depth LD,[7]; Day 6,17.6 ± 1.2^c μm
same,integrated mineral loss ΔZd,[7]; Day 12,1352.1 ± 147.3^bde vol % min · μm
same,lesion depth LD,[7]; Day 12,37.1 ± 5.3^bdf μm
same,integrated mineral loss ΔZd,[7]; Day 19,2096.3 ± 66.7^ae vol % min · μm
same,lesion depth LD,[7]; Day 19,46.1 ± 4.7^be μm
same,rate of demineralization,[7]; between day 6 and day 19,112.1 vol % min·μm/day
same,reduction in rate of demineralization relative to control,"[7]; between day 6 and day 19, twice daily exposure",50.2% and 50%
same,increase in calcium in the biofilm relative to the control,polymicrobial biofilm; ICP-MS,two-fold
same,increase in phosphorous in the biofilm relative to the control,polymicrobial biofilm; ICP-MS,two-fold
same,peak stannous concentration in the biofilm,polymicrobial biofilm; ICP-MS,1.0 nmol/mg biofilm wet weight
same,"Sn accumulated in the polymicrobial biofilms, concentration",polymicrobial biofilm; during SnF2 treatment,≤ 119 ppm
